Assays:
[1] = molecular target: T1, PERK phosphorylation in MCF10A-HER2 cells (Homo sapiens, UniProt Q9NZJ5); test: Immunoblot of PERK phosphorylation in stressed cells; type: cell-based; details: 2 μM; cells in suspension for 24 hours
T1 construct: endogenous in cells; host or cells: MCF10A-HER2 cells in suspension for 24 hours
T1 sequence (Q9NZJ5 30-1116): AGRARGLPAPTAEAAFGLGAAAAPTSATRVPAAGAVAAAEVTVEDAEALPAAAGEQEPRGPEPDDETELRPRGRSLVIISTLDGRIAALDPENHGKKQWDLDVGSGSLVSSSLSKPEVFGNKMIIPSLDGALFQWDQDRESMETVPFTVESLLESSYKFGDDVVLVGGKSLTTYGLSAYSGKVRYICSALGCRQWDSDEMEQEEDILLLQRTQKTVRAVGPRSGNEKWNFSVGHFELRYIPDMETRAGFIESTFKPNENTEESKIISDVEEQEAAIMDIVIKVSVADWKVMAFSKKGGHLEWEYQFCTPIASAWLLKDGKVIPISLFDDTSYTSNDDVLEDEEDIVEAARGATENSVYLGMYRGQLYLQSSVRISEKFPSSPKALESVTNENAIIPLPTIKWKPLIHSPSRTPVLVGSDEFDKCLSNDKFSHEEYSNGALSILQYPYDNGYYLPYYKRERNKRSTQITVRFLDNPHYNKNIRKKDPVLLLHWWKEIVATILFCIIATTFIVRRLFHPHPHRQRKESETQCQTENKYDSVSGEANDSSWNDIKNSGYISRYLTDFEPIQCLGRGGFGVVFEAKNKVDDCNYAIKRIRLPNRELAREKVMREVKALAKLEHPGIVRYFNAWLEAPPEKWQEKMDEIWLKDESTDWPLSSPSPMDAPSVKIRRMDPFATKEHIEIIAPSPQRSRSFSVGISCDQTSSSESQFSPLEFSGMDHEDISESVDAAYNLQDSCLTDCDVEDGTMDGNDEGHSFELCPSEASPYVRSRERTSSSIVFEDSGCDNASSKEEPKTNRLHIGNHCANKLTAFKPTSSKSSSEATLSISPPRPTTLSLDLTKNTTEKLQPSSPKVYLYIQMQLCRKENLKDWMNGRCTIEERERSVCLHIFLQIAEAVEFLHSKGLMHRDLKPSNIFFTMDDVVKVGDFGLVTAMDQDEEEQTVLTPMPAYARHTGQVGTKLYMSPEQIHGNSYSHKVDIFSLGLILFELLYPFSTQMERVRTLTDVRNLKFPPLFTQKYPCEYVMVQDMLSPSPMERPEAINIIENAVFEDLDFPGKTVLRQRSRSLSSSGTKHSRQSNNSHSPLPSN

[2] = tested on: ATF4-Luc activity; test: ATF4-luc assay, tunicamycin-induced, 293 cells; details: Homo sapiens, HEK293; tunicamycin-induced ATF4-Luc activity in 293 cells; read-out: ATF4-luc Cell-based IC50
Procedure: ATF4-luc assay: 293 cells were transduced with an ATF4-luc expressing lentivirus (SABiosciences, Frederick, Md.) and selected in growth medium containing 1 μg/ml puromycin. To determine the effect of compounds on ER stress-induced ATF4 activity, 293-ATF4-luc cells were seeded at 15,000 cells per well in poly-D-Lysine coated 96-well plates and allowed to attach overnight. The cells were then pre-treated with test compounds for 30 minutes. Tunicamycin (2 μM) was added to induce ER stress and the plates were incubated at 37° C. for 6 hours. The culture media was then aspirated and the cells were lysed in passive lysis buffer (Promega Cat # E194A) on a plate shaker for 5 minutes. Luciferase activity was monitored using Luciferase Assay Reagent (Promega Cat # E1501) in a Wallac 1420 Victor2™ Multilabel Counter (PerkinElmer, Waltham, Mass.) and IC50 values were determined from the resulting fitted inhibition curves using un-induced (100% inhibition) and induced (0% inhibition) wells as controls.

[3] = molecular target: T2, PERK (Homo sapiens, UniProt Q9NZJ5); test: Cell-based TR-FRET assay of tunicamycin-induced eIF2a phosphorylation in 293 cells
T2 construct: endogenous in cells; host or cells: GripTite 293 cells expressing GFP-eIF2a
T2 sequence (Q9NZJ5 30-1116): T1 sequence (Q9NZJ5 30-1116)
Procedure: Cell-based TR-FRET assay: Briefly, GripTite™ 293 cells (Invitrogen) expressing GFP-eIF2a were seeded at 10,000 cells per well in 384-well plates and allowed to attach overnight. Cells were pre-treated with test compounds for 1 hour. Tunicamycin (1 μM) was added to induce PERK activity and the plates were incubated at 37° C. for 2 hours. The culture media was removed and the cells were lysed in buffer consisting of 20 mM Tris-HCl, pH 7.5, 150 mM NaCl, 5 mM EDTA, 1% NP-40, 5 mM NaF, Protease inhibitors (Sigma Cat # P8340), Phosphatase inhibitors (Sigma Cat # P2850), and 2 nM Terbium-labelled anti-phospho-eIF2 antibody (Invitrogen Cat # PM43121). Cell lysates were incubated for 2 hours in the dark at room temperature and fluorescence was monitored in an EnVison® Multilabel reader (PerkinElmer, Waltham, Mass.).

[4] = tested on: secondary kinase targets; test: Kinase selectivity by enzymatic biochemical assay (FIG. 2E); details: enzymatic assays
Procedure: (§1) Biochemical assays: Recombinant human EIF2AK3 (PERK) catalytic domain (amino acids 536-1116; Cat # PV5107), GFP-eIF2a (Cat # PV4809) substrate, and Terbium-labelled phospho-eIF2a antibody (Cat # PR8956B) were purchased from Invitrogen (Carlsbad, Calif.). HIS-SUMO-GCN2 catalytic domain (amino acids 584-1019) was expressed and purified from E. coli. TR-FRET kinase assays were performed in the absence or presence of inhibitors in a reaction buffer consisting of 50 mM HEPES, pH 7.5, 10 mMMgCl2, 1.0 mM EGTA, and 0.01% Brij-35, and 100-200 nM GFP-eIF2a substrate. […] Following the addition of test compound, the reaction was initiated by addition of enzyme and incubated at room temperature for 45 minutes. The reaction was stopped by addition of EDTA to a final concentration of 10 mM and Terbium-labelled phospho-eIF2α antibody was added at a final concentration of 2 nM and incubated for 90 minutes. The resulting fluorescence was monitored in an EnVison® Multilabel reader (PerkinElmer, Waltham, Mass.). TR-FRET ratios and the resulting IC50 values were determined from the fitted inhibition curves. Biochemical specificity profiling was performed at Cerep (Redmond, Wash.) and DiscoverX (San Diego, Calif.).

[5] = molecular target: 456 kinases; test: DiscoveRx scanMAX kinase profiling, number of kinases inhibited; type: binding; details: for # kinases inhibited >50%: 456 kinases tested; for number of kinases with >60% inhibition: 20 μM as stated in text, 456 kinases
Procedure: as §1

# kinases inhibited >50% ([5]; 20.0 μM)	Compound	PERK phosphorylation (immunoblot) [1]	IC50 [2] [nM]	IC50 [3] [nM]	secondary kinase targets [4]	# kinases inhibited >50% ([5]; 0.2 μM)	# kinases inhibited >50% ([5]; 2.0 μM)	number of kinases with >60% inhibition [5]
	Cc1cccc(CC(=O)N2CCc3c2ccc(-c2cn(C)c4ncnc(N)c24)c3F)n1 [GSK2656157, reference compound]	inhibition of PERK phosphorylation	21	36	several secondary targets below 5 μM	34	80	58
138	CNC(=O)c1nc(-c2ccc(NC(=O)[C@H](O)c3cc(F)cc(F)c3)cc2C)cnc1N [LY2, 3-amino-6-[4-[[(2R)-2-(3,5-difluorophenyl)-2-hydroxy-acetyl]amino]-2-methyl-phenyl]-N-methyl-pyrazine-2-carboxamide]	inhibition of PERK phosphorylation	56	117	several secondary targets below 5 μM	16	35	
229	Cc1cc(NC(=O)[C@H](O)c2cccc(F)c2)ccc1-c1cn(C)c2ncnc(N)c12 [LY3, (2R)-N-[4-(4-amino-7-methyl-pyrrolo[2,3-d]pyrimidin-5-yl)-3-methyl-phenyl]-2-(3-fluorophenyl)-2-hydroxy-acetamide]	inhibition of PERK phosphorylation	16	26	several secondary targets below 5 μM	27	85	
	Cc1cc(NC(=O)[C@H](O)c2cc(F)cc(F)c2)ccc1-c1cnc(N)c(C(=O)NC(C)C)c1 [LY4, 2-amino-5-[4-[[(2R)-2-(3,5-difluorophenyl)-2-hydroxy-acetyl]amino]-2-methyl-phenyl]-N-isopropyl-pyridine-3-carboxamide]	inhibition of PERK phosphorylation	48	54	no secondary kinase targets below 15 μM concentration	19	20	8

From patent US20210121527A1, “METHODS OF TREATING MINIMAL RESIDUAL CANCER” (ICAHN SCHOOL OF MEDICINE AT MOUNT SINAI, priority 2018, published 2021)
